Experimental data from ChEMBL document CHEMBL1828524, “Monoamine oxidase inhibition by selected anilide derivatives” (Eur J Med Chem, 2011).

What was measured:
[1] = molecular target: T1, Amine oxidase [flavin-containing] A (Homo sapiens, UniProt P21397); assay: Inhibition of human recombinant MAO-A assessed as oxidation of kynuramine to 4-hydroxyquinoline after 20 mins
T1 sequence (P21397 whole entry): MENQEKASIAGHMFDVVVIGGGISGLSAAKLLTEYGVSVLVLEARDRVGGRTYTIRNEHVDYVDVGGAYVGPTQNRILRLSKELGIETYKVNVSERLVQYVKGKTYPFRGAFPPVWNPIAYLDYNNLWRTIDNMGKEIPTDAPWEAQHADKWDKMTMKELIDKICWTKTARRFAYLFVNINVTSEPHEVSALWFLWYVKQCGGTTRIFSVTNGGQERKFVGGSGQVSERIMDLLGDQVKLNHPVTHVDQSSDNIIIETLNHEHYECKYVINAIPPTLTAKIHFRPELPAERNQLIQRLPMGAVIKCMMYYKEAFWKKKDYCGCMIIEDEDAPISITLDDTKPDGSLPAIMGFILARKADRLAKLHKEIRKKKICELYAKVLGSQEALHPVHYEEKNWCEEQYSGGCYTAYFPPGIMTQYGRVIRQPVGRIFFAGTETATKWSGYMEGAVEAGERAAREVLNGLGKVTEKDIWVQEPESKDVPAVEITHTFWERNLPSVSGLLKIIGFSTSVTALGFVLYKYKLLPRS

[2] = molecular target: T2, Amine oxidase [flavin-containing] B (Homo sapiens, UniProt P27338); assay: Inhibition of human recombinant MAO-B assessed as oxidation of kynuramine to 4-hydroxyquinoline after 20 mins
T2 sequence (P27338 whole entry): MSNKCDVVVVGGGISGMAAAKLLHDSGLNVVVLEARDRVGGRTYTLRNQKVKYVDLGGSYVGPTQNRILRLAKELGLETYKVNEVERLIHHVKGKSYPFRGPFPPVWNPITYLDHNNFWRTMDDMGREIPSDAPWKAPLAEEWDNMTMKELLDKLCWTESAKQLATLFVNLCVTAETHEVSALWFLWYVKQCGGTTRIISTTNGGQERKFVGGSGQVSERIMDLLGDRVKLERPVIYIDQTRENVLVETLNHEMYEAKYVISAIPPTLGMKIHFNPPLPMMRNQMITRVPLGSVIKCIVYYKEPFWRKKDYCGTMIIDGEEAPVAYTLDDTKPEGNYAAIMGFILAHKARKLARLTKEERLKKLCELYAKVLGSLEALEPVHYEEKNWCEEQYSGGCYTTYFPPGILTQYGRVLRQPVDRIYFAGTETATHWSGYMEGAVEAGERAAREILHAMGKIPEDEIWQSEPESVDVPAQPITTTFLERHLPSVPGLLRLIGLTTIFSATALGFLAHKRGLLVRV

[3] = molecular target: T1, Amine oxidase [flavin-containing] A; assay: Inhibition of human recombinant MAO-A assessed as oxidation of kynuramine to 4-hydroxyquinoline at 100 uM after 20 mins

Row | Structure (SMILES) | IC50 [1] [µM] | IC50 [2] [µM] | inhibition (INH) [3]
1 | O=C(/C=C/C=C/c1ccccc1)Nc1ccccc1 |  | 5.16 | Not Active
2 | Cc1cccc(NC(=O)/C=C/C=C/c2ccccc2)c1 | 335 | 6.65 | 
3 | O=C(/C=C/C=C/c1ccccc1)Nc1cccc(Br)c1 | 105 | 2.73 | 
4 | O=C(C/C=C/c1ccccc1)Nc1ccccc1 | 297 | 33.2 | 
5 | Cc1cccc(NC(=O)C/C=C/c2ccccc2)c1 | 74.8 | 48.1 | 
6 | O=C(C/C=C/c1ccccc1)Nc1cccc(Cl)c1 | 58.4 | 23.5 | 
7 | O=C(C/C=C/c1ccccc1)Nc1cccc(Br)c1 | 34.5 | 30.9 | 

Continued, values first:

Row | IC50 [1] [µM] | IC50 [2] [µM] | inhibition (INH) [3] | Structure (SMILES)
8 | 16.7 | 0.447 |  | O=C(/C=C/c1ccccc1)Nc1cccc(Br)c1
9 | 98.2 | 2.2 |  | O=C(/C=C/C=C/c1ccccc1)Nc1cccc(Cl)c1
10 |  | 1.01 | Not Active | O=C(/C=C/c1cccc(O)c1)Nc1cccc(Br)c1
11 | 35.6 | 0.026 |  | O=C(/C=C/c1ccc(O)cc1)Nc1cccc(Br)c1
12 | 13.5 | 0.09 |  | N#Cc1cccc(/C=C/C(=O)Nc2cccc(Cl)c2)c1
13 | 27.2 | 0.059 |  | N#Cc1cccc(/C=C/C(=O)Nc2cccc(Br)c2)c1
14 | 184 | 0.407 |  | N#Cc1ccc(/C=C/C(=O)Nc2cccc(Cl)c2)cc1
15 | 36.2 | 0.289 |  | N#Cc1ccc(/C=C/C(=O)Nc2cccc(Br)c2)cc1
16 | 48.1 | 4.5 |  | Cc1cccc(NC(=O)/C=C/c2ccccc2)c1 [N-M-TOLYLCINNAMAMIDE]
